Measurements as given in ChEMBL document CHEMBL3098088, “Synthesis and antimycobacterial activity of novel camphane-based agents” (Bioorg Med Chem Lett, 2014).
Converted amounts (≈) assume the structure as drawn. Where a name gives a salt, the structure may show the parent alone.

Columns and labels:
[1] = system: Mycobacterium tuberculosis; experiment: Antimycobacterial activity against Mycobacterium tuberculosis H37Rv after 45 days; assay type: functional
[2] = Selectivity index, ratio of IC50 for human 293T cells to MIC for Mycobacterium tuberculosis H37Rv; assay type: toxicity, cell-based; conditions: read-out: Selectivity Index
HEK-293T = experiment: Cytotoxicity against human 293T cells; assay type: cell-based

Structure (SMILES) | MIC [1] [µM] | selectivity ratio [2] | IC50 (HEK-293T) [µM]
CO[C@H]1/C=C/O[C@@]2(C)Oc3c(C)c(O)c4c(O)c(c(/C=N/N5CCN(C)CC5)c(O)c4c3C2=O)NC(=O)/C(C)=C\C=C\[C@H](C)[C@H](O)[C@@H](C)[C@@H](O)[C@@H](C)[C@H](OC(C)=O)[C@@H]1C [RIFAMPIN] | 0.06 (≈ 0.0494 µg/mL) |  | 
CC[C@H](C)[C@H](O)C(=O)N[C@@H]1C[C@H]2CC[C@]1(C)C2(C)C | 7.48 (≈ 2 µg/mL) | 13.6 | 107
CC1(C)[C@@H]2CC[C@@]1(C)[C@H](NC(=O)[C@@H](O)c1ccccc1)C2 | 0.17 (≈ 0.0489 µg/mL) | 619 | 105
CC[C@@H](CO)NCCN[C@@H](CC)CO [ETHAMBUTOL HYDROCHLORIDE] | 7.22 |  | 
CC(C)[C@H](O)C(=O)N[C@@H]1C[C@H]2CC[C@]1(C)C2(C)C | 7.89 (≈ 2 µg/mL) | > 25.3 | > 200
CC(C)C[C@H](O)C(=O)N[C@@H]1C[C@H]2CC[C@]1(C)C2(C)C | 7.48 (≈ 2 µg/mL) | 14.9 | 112
CC1(C)[C@@H]2CC[C@@]1(C)[C@H](NC(=O)[C@@H](O)Cc1ccccc1)C2 | 0.16 (≈ 0.0482 µg/mL) | 330 | 52.8
CSCC[C@H](O)C(=O)N[C@@H]1C[C@H]2CC[C@]1(C)C2(C)C | 0.17 (≈ 0.0485 µg/mL) | 1010 | 172
